In patent US12685777B2, “Compositions, systems, and methods for modulating a target gene” (The Board of Trustees of the Leland Stanford Junior …, priority 2022, dated 2026):
“And” between values parts separate entries of the source, which are not always exact repeats. Equal values may be shown once. Read-outs that look alike come from different tables or passages of the source.

Experiment: Measurement of serum half life (pharmacokinetics) in mice
Format: in vivo
Experimental: Tests were performed to determine whether JWZ-7-7 is capable of maintaining sufficiently high blood levels for killing SCLC and DLBCL. Formulations for either IV or IP administration were prepared as follows:
• Concentration: 0.6 mg/ml • Composition: 5/5/90 DMSO/Tween80/saline • Dose: 5 μl/g body weight • Appearance: clear solution Formulation #2—Used for IP Animals • Concentration: 1 mg/ml • Composition: 5/5/90 DMSO/Tween80/saline • Dose: 10 μl/g body weight • Appearance: clear solution
After either IV or IP injection of 3 mice each with either 3 mg/Kg (IV) or 10 mg/Kg(IP), the levels of JWZ-7-7 were measured at the indicated intervals. The calculated T1/2 is 4.47 hours for IV injection and 5.63 hours for […].

[1] = mouse, 3 mg/Kg IV, individual mice and Avg., 3 mg/kg
[2] = mouse, 3 mg/Kg IV, individual mice and Avg., 3 mg/kg, mean
[3] = mouse, 10 mg/Kg IP, individual mice and Avg., 10 mg/kg
[4] = mouse, 10 mg/Kg IP, individual mice and Avg., 10 mg/kg, mean

Question: With `CNC(=O)COc1cc2cc(Nc3nc(N4CCC(C(=O)NCCCCCCCNC(=O)C[C@@H]5N=C(c6ccc(Cl)cc6)c6c(sc(C)c6C)-n6c(C)nnc65)CC4)ncc3Cl)cc(OC)c2n(C)c1=O` [JWZ-7-7, (S)-1-(5-chloro-4-((8-methoxy-1-methyl-3-(2-(methylamino)-2-oxoethoxy)-2-oxo-1,2-dihydroquinolin-6-yl)amino)pyrimidin-2-yl)-N-(7-(2-(4-(4-chlorophenyl)-2,3,9-trimethyl-6H-thieno[3,2-f][1,2,4]triazolo[4,3-a][1,4]diazepin-6-yl)acetamido)heptyl)piperidine-4-carboxamide] as the compound, how does the half-life (C57BL/6, mouse, serum, ip, 10 mg/kg, 10 mg/Kg IP, individual mice and Avg.) read?
Answer: 5.63 h

Question: What about the Stability in serum (mouse) of the same compound?
Answer: stable in serum

Question: What about the “AUC% Extrap” value [1] of the same compound?
Answer: 6.66% and 9.35% and 9.79%

Question: What about the AUCINF_obs [1] of the same compound?
Answer: 797713 ng·min/mL and 444167 ng·min/mL and 988029 ng·min/mL

Question: What about the AUClast [1] of the same compound?
Answer: 744580 min*ng/mL and 12.11 μM · hr and 402652 min*ng/mL and 6.55 μM · hr and 891309 min*ng/mL and 14.50 μM · hr

Question: What about the CI_obs [1] of the same compound?
Answer: 3.8 mL/min/kg and 6.8 mL/min/kg and 3.0 mL/min/kg

Question: What about the Cmax [1] of the same compound?
Answer: 31100 ng/mL and 14500 ng/mL and 36500 ng/mL

Question: And the MRTINF_obs [1]?
Answer: 2.39 h and 2.14 h

Question: And the T1/2 [1]?
Answer: 3.74 h and 3.93 h and 5.73 h

Question: And the Vss_obs [1]?
Answer: 0.36 L/kg and 0.97 L/kg and 0.39 L/kg

Question: What about the “AUC% Extrap” value [2] of the same compound?
Answer: 8.60%

Question: What about the AUCINF_obs [2] of the same compound?
Answer: 743303 ng·min/mL

Question: And the AUClast [2]?
Answer: 679514 min*ng/mL and 11.06 μM · hr

Question: What about the CI_obs [2] of the same compound?
Answer: 4.5 mL/min/kg

Question: What about the Cmax [2] of the same compound?
Answer: 27367 ng/mL

Question: And the MRTINF_obs [2]?
Answer: 2.04 h

Question: And the Vss_obs [2]?
Answer: 0.57 L/kg

Question: And the Cmax (mouse, 3 mg/Kg IV, individual mice and Avg., 3 mg/kg, mean, read-out: Cmax)?
Answer: 26.7 µM

Question: What about the Cmax (mouse, 3 mg/Kg IV, individual mice and Avg., 3 mg/kg, read-out: Cmax) of the same compound?
Answer: 30.4 µM and 14.2 µM and 35.6 µM

Question: What about the “AUC% Extrap” value [3] of the same compound?
Answer: 42.22% and 42.00% and 38.85%

Question: And the AUCINF_obs [3]?
Answer: 174254 ng·min/mL and 349182 ng·min/mL and 315593 ng·min/mL

Question: And the AUClast [3]?
Answer: 100685 min*ng/mL and 1.64 μM · hr and 202511 min*ng/mL and 3.29 μM · hr and 192976 min*ng/mL and 3.14 μM · hr

Question: And the Cl_obs [3]?
Answer: 57.4 mL/min/kg and 28.6 mL/min/kg and 31.7 mL/min/kg

Question: And the Cmax [3]?
Answer: 389 ng/mL and 805 ng/mL and 885 ng/mL

Question: And the T1/2 [3]?
Answer: 5.48 h and 6.32 h and 5.08 h

Question: What about the Tmax [3] of the same compound?
Answer: 0.50 h and 1.00 h

Question: What about the “AUC% Extrap” value [4] of the same compound?
Answer: 41.03%

Question: What about the AUCINF_obs [4] of the same compound?
Answer: 279676 ng·min/mL

Question: What about the AUClast [4] of the same compound?
Answer: 165391 min*ng/mL and 2.69 μM · hr

Question: What about the Cl_obs [4] of the same compound?
Answer: 39.2 mL/min/kg

Question: And the Cmax [4]?
Answer: 693 ng/mL

Question: And the Tmax [4]?
Answer: 0.53 h

Question: What about the Cmax (mouse, 10 mg/Kg IP, individual mice and Avg., 10 mg/kg, mean, read-out: Cmax) of the same compound?
Answer: 0.68 µM

Question: And the Cmax (mouse, 10 mg/Kg IP, individual mice and Avg., 10 mg/kg, read-out: Cmax)?
Answer: 0.38 µM and 0.79 µM and 0.86 µM

Question: And the half-life (mouse, serum, iv, 3 mg/kg, 3 mg/Kg IV, individual mice and Avg.)?
Answer: 4.47 h

Question: What about the MRT inf (mouse, serum, iv, 3 mg/kg, 3 mg/Kg IV, individual mice and Avg., read-out: MRTINF_obs) of the same compound?
Answer: 1.59 h

Question: And the Tmax (mouse, serum, iv, 3 mg/kg, 3 mg/Kg IV, individual mice and Avg., read-out: Tmax)?
Answer: 0.08 h
